Reference: the supplement of paper PMC6125532
≈ marks a conversion by molar mass, not a printed value.

Tests used:
[1] = tested on: Mycobacterium tuberculosis CRY-6; CRY-29
Method: (§1)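 Resazurin microtiter assay (REMA) MICs of anti-TB drugs against 19 EQA Mycobacterium tuberculosis strains (clinical or proficiency isolates plus H37Rv). Drugs were tested in doubling dilutions. Each value is the consensus of two measurements; where they disagreed the lower value was taken.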

[2] = tested on: Mycobacterium tuberculosis CRY-5; CRY-10
Method: as §1

[3] = tested on: Mycobacterium tuberculosis CRY-26
Method: as §1

[4] = tested on: Mycobacterium tuberculosis CRY-15; CRY-21
Method: as §1

[5] = tested on: Mycobacterium tuberculosis CRY-2; CRY-25
Method: as §1

[6] = tested on: Mycobacterium tuberculosis CRY-9; CRY-22
Method: as §1

[7] = tested on: Mycobacterium tuberculosis CRY-4; CRY-30
Method: as §1

[8] = tested on: Mycobacterium tuberculosis CRY-14
Method: as §1

[9] = tested on: Mycobacterium tuberculosis CRY-8; CRY-13
Method: as §1

[10] = tested on: Mycobacterium tuberculosis CRY-3; CRY-11
Method: as §1

[11] = tested on: Mycobacterium tuberculosis CRY-23
Method: as §1

[12] = tested on: Mycobacterium tuberculosis CRY-16
Method: as §1

[13] = tested on: Mycobacterium tuberculosis CRY-19
Method: as §1

[14] = tested on: Mycobacterium tuberculosis CRY-12; CRY-24
Method: as §1

[15] = tested on: Mycobacterium tuberculosis CRY-7; CRY-18
Method: as §1

[16] = tested on: Mycobacterium tuberculosis CRY-27
Method: as §1

[17] = tested on: Mycobacterium tuberculosis CRY-1; CRY-17
Method: as §1

[18] = tested on: Mycobacterium tuberculosis CRY-28
Method: as §1

[19] = tested on: Mycobacterium tuberculosis CRY-20
Method: as §1

Structure (SMILES)	MIC (REMA) [1] [µg/mL]	MIC (REMA) [2] [µg/mL]	MIC (REMA) [3] [µg/mL]	MIC (REMA) [4] [µg/mL]	MIC (REMA) [5] [µg/mL]	MIC (REMA) [6] [µg/mL]	MIC (REMA) [7] [µg/mL]	MIC (REMA) [8] [µg/mL]	MIC (REMA) [9] [µg/mL]	MIC (REMA) [10] [µg/mL]	MIC (REMA) [11] [µg/mL]	MIC (REMA) [12] [µg/mL]	MIC (REMA) [13] [µg/mL]	MIC (REMA) [14] [µg/mL]	MIC (REMA) [15] [µg/mL]	MIC (REMA) [16] [µg/mL]	MIC (REMA) [17] [µg/mL]	MIC (REMA) [18] [µg/mL]	MIC (REMA) [19] [µg/mL]
CC(C)/N=c1\cc2n(-c3ccc(Cl)cc3)c3ccccc3nc-2cc1Nc1ccc(Cl)cc1 [Clofazimine]	0.06 (≈ 0.127 µM)	0.06 (≈ 0.127 µM)	0.06 (≈ 0.127 µM)	1 (≈ 2.11 µM)	0.12 (≈ 0.253 µM)	1 (≈ 2.11 µM)	0.03 (≈ 0.0634 µM)	0.03 (≈ 0.0634 µM)	0.06 (≈ 0.127 µM)	0.12 (≈ 0.253 µM)	0.008 (≈ 0.0169 µM)	0.12 (≈ 0.253 µM)	–	–	–	–	–	–	–
CC(=O)NC[C@H]1CN(c2ccc(N3CCOCC3)c(F)c2)C(=O)O1 [Linezolid]	0.125 (≈ 0.371 µM)	0.25 (≈ 0.741 µM)	0.25 (≈ 0.741 µM)	0.25 (≈ 0.741 µM)	0.25 (≈ 0.741 µM)	0.25 (≈ 0.741 µM)	0.5 (≈ 1.48 µM)	0.03 (≈ 0.0889 µM)	0.25 (≈ 0.741 µM)	0.5 (≈ 1.48 µM)	0.25 (≈ 0.741 µM)	0.25 (≈ 0.741 µM)	0.06 (≈ 0.178 µM)	0.25 (≈ 0.741 µM)	0.25 (≈ 0.741 µM)	0.25 (≈ 0.741 µM)	0.25 (≈ 0.741 µM)	0.125 (≈ 0.371 µM)	0.125 (≈ 0.371 µM)
CO[C@H]1/C=C/O[C@@]2(C)Oc3c(C)c(O)c4c(O)c(c(/C=N/N5CCN(C)CC5)c(O)c4c3C2=O)NC(=O)/C(C)=C\C=C\[C@H](C)[C@H](O)[C@@H](C)[C@@H](O)[C@@H](C)[C@H](OC(C)=O)[C@@H]1C [Rifampicin]	–	> 4	0.015 (≈ 0.0182 µM)	0.03 (≈ 0.0365 µM)	–	–	–	2 (≈ 2.43 µM)	> 4	–	–	–	0.03 (≈ 0.0365 µM)	0.015 (≈ 0.0182 µM)	> 4	> 4	> 4	> 4	0.06 (≈ 0.0729 µM)
C[C@H]1COc2c(N3CCN(C)CC3)c(F)cc3c(=O)c(C(=O)O)cn1c23 [Levofloxacin]	0.125 (≈ 0.346 µM)	–	0.25 (≈ 0.692 µM)	0.125 (≈ 0.346 µM)	–	0.125 (≈ 0.346 µM)	0.25 (≈ 0.692 µM)	0.06 (≈ 0.166 µM)	–	0.25 (≈ 0.692 µM)	0.06 (≈ 0.166 µM)	0.25 (≈ 0.692 µM)	0.125 (≈ 0.346 µM)	0.25 (≈ 0.692 µM)	–	0.25 (≈ 0.692 µM)	0.125 (≈ 0.346 µM)	0.06 (≈ 0.166 µM)	0.125 (≈ 0.346 µM)
NNC(=O)c1ccncc1 [Isoniazid]	> 8	> 8	0.03 (≈ 0.219 µM)	–	–	0.03 (≈ 0.219 µM)	–	> 8	> 8	0.06 (≈ 0.438 µM)	> 8	≤ 0.015	0.125 (≈ 0.911 µM)	–	> 8	–	> 8	> 8	–
CC[C@@H](CO)NCCN[C@@H](CC)CO [Ethambutol]	1 (≈ 4.89 µM)	–	0.5 (≈ 2.45 µM)	1 (≈ 4.89 µM)	1 (≈ 4.89 µM)	–	–	4 (≈ 19.6 µM)	–	1 (≈ 4.89 µM)	1 (≈ 4.89 µM)	4 (≈ 19.6 µM)	0.5 (≈ 2.45 µM)	1 (≈ 4.89 µM)	–	1 (≈ 4.89 µM)	4 (≈ 19.6 µM)	0.5 (≈ 2.45 µM)	–
CO[C@H]1/C=C/O[C@@]2(C)Oc3c(C)c(O)c4c(c3C2=O)C2=NC3(CCN(CC(C)C)CC3)NC2=C(NC(=O)/C(C)=C\C=C\[C@H](C)[C@H](O)[C@@H](C)[C@@H](O)[C@@H](C)[C@H](OC(C)=O)[C@@H]1C)C4=O [Rifabutin]	≤ 0.004	1 (≈ 1.18 µM)	≤ 0.004	0.008 (≈ 0.00944 µM)	≤ 0.004	≤ 0.004	≤ 0.004	0.125 (≈ 0.148 µM)	2 (≈ 2.36 µM)	≤ 0.004	≤ 0.004	≤ 0.004	≤ 0.004	≤ 0.004	2 (≈ 2.36 µM)	> 2	> 2	1 (≈ 1.18 µM)	≤ 0.004
C[C@]1(COc2ccc(N3CCC(Oc4ccc(OC(F)(F)F)cc4)CC3)cc2)Cn2cc([N+](=O)[O-])nc2O1 [Delamanid]	0.015 (≈ 0.0281 µM)	0.125 (≈ 0.234 µM)	0.015 (≈ 0.0281 µM)	0.125 (≈ 0.234 µM)	0.03 (≈ 0.0561 µM)	2 (≈ 3.74 µM)	0.03 (≈ 0.0561 µM)	0.015 (≈ 0.0281 µM)	0.03 (≈ 0.0561 µM)	0.06 (≈ 0.112 µM)	0.03 (≈ 0.0561 µM)	0.03 (≈ 0.0561 µM)	0.015 (≈ 0.0281 µM)	0.03 (≈ 0.0561 µM)	0.06 (≈ 0.112 µM)	0.25 (≈ 0.468 µM)	> 2	0.008 (≈ 0.015 µM)	0.015 (≈ 0.0281 µM)
COc1nc2ccc(Br)cc2cc1[C@@H](c1ccccc1)[C@@](O)(CCN(C)C)c1cccc2ccccc12 [Bedaquiline]	0.03 (≈ 0.054 µM)	0.015 (≈ 0.027 µM)	0.03 (≈ 0.054 µM)	2 (≈ 3.6 µM)	0.06 (≈ 0.108 µM)	0.25 (≈ 0.45 µM)	0.015 (≈ 0.027 µM)	≤ 0.004	0.06 (≈ 0.108 µM)	0.12 (≈ 0.216 µM)	0.008 (≈ 0.0144 µM)	0.03 (≈ 0.054 µM)	0.015 (≈ 0.027 µM)	0.5 (≈ 0.9 µM)	0.06 (≈ 0.108 µM)	0.06 (≈ 0.108 µM)	0.06 (≈ 0.108 µM)	0.015 (≈ 0.027 µM)	0.03 (≈ 0.054 µM)
NCC[C@H](O)C(=O)N[C@@H]1C[C@H](N)[C@@H](O[C@H]2O[C@H](CN)[C@@H](O)[C@H](O)[C@H]2O)[C@H](O)[C@H]1O[C@H]1O[C@H](CO)[C@@H](O)[C@H](N)[C@H]1O [Amikacin]	–	0.25 (≈ 0.427 µM)	–	–	0.25 (≈ 0.427 µM)	0.25 (≈ 0.427 µM)	–	> 16	–	–	0.125 (≈ 0.213 µM)	–	0.25 (≈ 0.427 µM)	> 16	> 16	–	–	0.25 (≈ 0.427 µM)	–
NC[C@H]1O[C@H](O[C@H]2[C@H](O)[C@@H](O[C@H]3O[C@H](CO)[C@@H](O)[C@H](N)[C@H]3O)[C@H](N)C[C@@H]2N)[C@H](O)[C@@H](O)[C@@H]1O [Kanamycin]	1 (≈ 2.06 µM)	0.5 (≈ 1.03 µM)	1 (≈ 2.06 µM)	2 (≈ 4.13 µM)	1 (≈ 2.06 µM)	1 (≈ 2.06 µM)	2 (≈ 4.13 µM)	> 32	2 (≈ 4.13 µM)	2 (≈ 4.13 µM)	0.5 (≈ 1.03 µM)	1 (≈ 2.06 µM)	0.5 (≈ 1.03 µM)	> 32	> 32	2 (≈ 4.13 µM)	1 (≈ 2.06 µM)	0.5 (≈ 1.03 µM)	1 (≈ 2.06 µM)
COc1c(N2C[C@@H]3CCCN[C@@H]3C2)c(F)cc2c(=O)c(C(=O)O)cn(C3CC3)c12 [Moxifloxacin]	0.015 (≈ 0.0374 µM)	8 (≈ 19.9 µM)	0.03 (≈ 0.0747 µM)	0.06 (≈ 0.149 µM)	0.25 (≈ 0.623 µM)	0.015 (≈ 0.0374 µM)	0.06 (≈ 0.149 µM)	≤ 0.008	0.5 (≈ 1.25 µM)	0.03 (≈ 0.0747 µM)	0.03 (≈ 0.0747 µM)	0.03 (≈ 0.0747 µM)	0.04 (≈ 0.0996 µM)	0.06 (≈ 0.149 µM)	0.25 (≈ 0.623 µM)	0.06 (≈ 0.149 µM)	0.03 (≈ 0.0747 µM)	0.06 (≈ 0.149 µM)	0.03 (≈ 0.0747 µM)
